The subject of the data set is Hep G2 cells. The data set can be described thus: Cytotoxicity test using Hep G2 cells (MTT assay). The note with it: up to 500 μg/ml; zinc only as a comparison. It is filed as cell-based. As for the experimental part:
Cytotoxicity Test Using Hep G2 Cells:
[…] P. (2000). “Cytotoxicity and Viability Assays”. In Masters, J. R. W. Animal Cell Culture: A Practical Approach, 3rd) using Hep G2 cells were conducted on these preparations.
In general terms: Formazan colour is commonly taken as a measure of viable cells.

As for `[Zn]` [zinc], the “Cytotoxicity of Hep G2 cells” value is “no cytotoxicity of Hep G2 cells was confirmed”.

For the origin of these results see patent US10822431B2, “Fucoidan preparation, zinc-bound fucoidan and use thereof” (South Product Ltd., priority 2015, dated 2020).
